# Like-named read-outs stand apart in the source and are kept apart here.
# Experiments:
# H37Rv Mtb strain = test: MIC90 in different media, H37Rv strain; format: cell-based, Mycobacterium tuberculosis
# Erdman Mtb strain = test: MIC90 in different media, Erdman strain; format: cell-based; conditions: Mycobacterium tuberculosis
# Mtb H37Rv strain = test: MIC90 determination in GASTE-Fe media (broth microdilution); format: cell-based, Mycobacterium tuberculosis; conditions: Mycobacterium tuberculosis, H37RV, 336 h, read-out: MIC90 GASTE-Fe
# in vitro = conditions: Chinese hamster
# physchem = format: physicochemical; conditions: 25 °C, pH 7.4, aqueous buffer, kinetic solubility, pH 7.4, HPLC method
# Experimental: The kinetic solubility assay was performed using a miniaturised shake flask method. 10 mM stock solutions of each of the test compounds were used to prepare calibration standards (10-220μM) in DMSO. The same 10mM stock solutions were accurately dispensed in duplicate into 96-well plates and the DMSO dried down (MiVac GeneVac, 90 min, 37 °C). Thereafter, the samples were reconstituted (200 µM) in phosphate buffered saline (pH 7.4) and shaken (20 hours, 25 °C). The solutions were filtered and analysed by means of HPLC -DAD (Agilent 1200 Rapid Resolution HPLC with a diode array detector). […]
# [1] = test system: cytochrome-bd oxidase knockout mutant strain (Δcyd); format: cell-based
# iniB expression = format: cell-based; conditions: detects compounds targeting cell-wall biosynthesis
# in vivo = test: in vivo; parameters: species or system C57/BL6 mice
# Experimental: In vivo PK studies were performed on compound 1 (sulfone) and compound 2 (sulfoxide) (Table 3). All studies and procedures were conducted with prior approval of the animal ethics committee of the University of Cape Town (approval numbers 013/028 and 014/028) in accordance with the South African National Standard (SANS 10386:008) for the Care and Use of Animals for Scientific Purposes and guidelines from the Department of Health. […]
# the South African National Standard (SANS 10386:008) for the Care and Use of Animals for Scientific Purposes,6 and guidelines from the Department of Health.7
# The pharmacokinetic parameters of the compounds were determined by dosing the compound to C57/BL6 mice through oral (n = 3 mice) and intravenous (n = 3 mice) administration. For oral administration, the compounds were formulated in 0.5% hydroxypropylmethyl cellulose (HPMC) in Phosphate buffered saline pH 7.4. The intravenous doses were administered in dimethylacetamide-polyethylene glycol 400-polypropylene glycol (DMA-PEG400-PPG) (10:30:60) Blood samples were collected via tail bleeding at predetermined time points and stored at -80°C until liquid chromatography-tandem mass spectrometry (LC-MS/MS) analysis.
# The whole-blood concentrations of the compounds were determined using a quantitative LC- […]
# method, using ice -cold acetonitrile.
# After centrifugation, the supernatant was transferred to 96 -well plates for analysis. LC -MS/MS was carried out on an AB Sciex 400 0 QTrap coupled to an Agilent 1200 high -performance liquid chromatograph (HPLC). Separation was achieved on a Kinetex PFP column column, using 0.1% formic acid in water as the aqueous mobile phase and 0.1% formic acid in acetonitrile as the organic mobile phase. The analytical limit of quantitation (LOQ) was 1 ng/ml. LC-MS/MS method accuracy and precision were 15% (nom) for the standards and […]
# Concentration-versus-time data were used to derive the PK parameters using noncompartmental analys is on PK Solutions 2.0 (Summit Research Services, Montrose, CO,
# [2] = format: in vitro ADME; conditions: human liver microsomes
# Experimental: 3.2. Microsomal stability
# The metabolic stability assay was performed in duplicate in a 96-well micro titre plate. The test compounds (0.1 μM) were incubated individually in mouse, rat and pooled human liver microsomes ((final protein concentration of 0.4 mg/mL; XenoTech, Lenexa, KS ), suspended in 0.1M phosphate buffer (pH 7.4) at 37 °C for predetermined time points, in the presence and absence of the cofactor NADPH (1 mM). Reactions were quenched by adding ice cold acetonitrile containing internal standard (carbamazepine, 0.0236 µg/mL). T he samples were centrifuged and test compound in the supernatant were analysed by means of LC -MS/MS (Agilent Rapid Resolution HPLC, AB SCIEX 4500 MS ). The relative loss of parent compound over time was monitored and plots (concentration vs. time) were prepared per compound to determine the first order rate constant for compound depletion. This was in turn used to calculate half-life, in vitro intrinsic clearance and in vivo hepatic extraction ratio. Metabolite searches were not conducted during the metabolic stability assay. 5
# recA expression = format: cell-based; conditions: indicator of genotoxic compounds
# [3] = Mycobacterium tuberculosis, H37RV; 7H12 + casitone + palmitic acid + BSA + catalase + Tween 80 (glycerol-free); read-out: MIC90
# [4] = Mycobacterium tuberculosis, H37RV; read-out: MIC90
# [5] = Erdman, 7H12 + casitone + palmitic acid + BSA + catalase + Tween 80 (glycerol-free)
# [6] = 100 mg/kg oral once per day, 12 days, three days after last dose, untreated 6.51
smiles,measurement,setting,value
"NNC(=O)c1ccncc1 [isoniazid, reference compound]",MIC,H37Rv Mtb strain; [3],0.016 µg/mL
same,MIC,H37Rv Mtb strain; [4],0.016 µg/mL
same,MIC,Erdman Mtb strain,0.016 µg/mL
same,MIC,Erdman Mtb strain; [5],0.016 µg/mL
"CO[C@H]1/C=C/O[C@@]2(C)Oc3c(C)c(O)c4c(O)c(c(/C=N/N5CCN(C)CC5)c(O)c4c3C2=O)NC(=O)/C(C)=C\C=C\[C@H](C)[C@H](O)[C@@H](C)[C@@H](O)[C@@H](C)[C@H](OC(C)=O)[C@@H]1C [Rifampicin, reference compound]",MIC90,Mtb H37Rv strain,0.0039 µM
same,MIC90,H37Rv Mtb strain,<0.008 µg/mL
same,MIC,"H37Rv Mtb strain; Mycobacterium tuberculosis, H37RV, read-out: MIC90",0.016 µg/mL
same,mean lung burdens,"Mtb Erdman-Lux; mouse, in vivo",5.72 log10 CFU
same,reduction of lung burdens,"Mtb Erdman-Lux; mouse, in vivo",0.8 log
"CC[C@@H](CO)NCCN[C@@H](CC)CO [ethambutol, reference compound]",mean lung burdens,Mtb Erdman-Lux; [6],4.15 log10 CFU
same,reduction of lung burdens,"Mtb Erdman-Lux; 100 mg/kg, relative to untreated",2.4 log
"C[S+]([O-])c1cccc(-c2ccc3nc(N)n(-c4ccc(C(F)(F)F)cc4)c(=O)c3c2)c1 (stereo not shown) [compound 2, 2-Amino-6-(3-(methylsulfinyl)phenyl)-3-(4-(trifluoromethyl)phenyl)quinazolin-4(3H)-one]",MIC90,"Mtb H37Rv strain; Mtb H37Rv, replicating conditions, GASTE-Fe media, read 14 days after incubation",0.64 µM
same,MIC,H37Rv Mtb strain; [3],> 16 µg/mL
same,MIC,H37Rv Mtb strain; [4],0.5 µg/mL
same,IC50,in vitro,> 100 µM
same,mean lung burdens,Mtb Erdman-Lux; [6],7.84 log10 CFU
same,mean lung burdens,"Mtb Erdman-Lux; 200 mg/kg oral once per day, 12 days, three days after last dose, untreated 6.51",7.75 log10 CFU
same,tolerability,"Mtb Erdman-Lux; 100 and 200 mg/kg oral once per day, 12 consecutive days",no evidence of compound tolerability issues
same,efficacy in the BALB/c acute infection model,"Mtb Erdman-Lux; 100 and 200 mg/kg oral, 12 days",lack efficacy
same,solubility,physchem,80 µM
same,MIC,Erdman Mtb strain,1 µg/mL
same,MIC,Erdman Mtb strain; [5],> 16 µg/mL
same,Δcyd GASTE-Fe MIC90,[1],2.5 µM
same,signal in PiniB-LUX reporter assay,iniB expression,did not show a positive signal
same,Vd,"in vivo; C57/BL6, in vivo, mouse, iv 5 mg/kg",11.1 L/kg
same,clearance,"in vivo; C57/BL6, in vivo, mouse, iv 5 mg/kg, read-out: CLtotal",21.8 mL/min/kg
same,half-life,"in vivo; C57/BL6, in vivo, mouse, iv 5 mg/kg, read-out: apparent t1/2 (converted)",6.2 h
same,Tmax,"in vivo; C57/BL6, in vivo, mouse, oral 20 mg/kg",0.5 h
same,Cmax,"in vivo; C57/BL6, in vivo, mouse, oral 20 mg/kg, whole blood",3.54 µM
same,bioavailability,"in vivo; C57/BL6, mouse, in vivo, oral 20 mg/kg vs iv 5 mg/kg, read-out: bioavailability",93%
same,AUC0–∞,"in vivo; mouse, iv 5 mg/kg",523 min·μmol·L^–1
same,AUC0–∞,"in vivo; mouse, oral 20 mg/kg",2152 min·μmol·L^–1
same,Metabolic Stability H (% Rem.),[2],88/-/- % Rem.
same,signal in PrecA-LUX reporter assay,recA expression,did not show a positive signal

# From PMC7359024, “Synthesis, Structure–Activity Relationship, and Mechanistic Studies of Aminoquinazolinones Displaying Antimycobacterial Activity” (ACS Infectious Diseases, 2020)
